Assay results taken from US11066369B2, “N-(pyridin-2-yl)pyridine-sulfonamide derivatives and their use in the treatment of disease” (Novartis AG, priority 2016, dated 2021).
Counter-ions that a name gives are not always drawn.

Biological target: T1, horseradish peroxidase (HRP) tagged delF508-CFTR (Homo sapiens, UniProt P13569, DEL508-508)
T1 construct: expressed in transfected cells
Test: Measurement of delF508-CFTR-HRP surface expression in CFBE41o- cells;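 for DelF508-CFTR-HRP Amax %: percent efficacy relative to reference corrector lumacaftor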
Assay type: cell-based
Settings: delF508-CFTR-HRP surface expression, CFBE41o- cells; for Emax: read-out: DelF508-CFTR-HRP Amax %; for EC50: read-out: DelF508-CFTR-HRP EC50
Source text: Measurement of delF508-CFTR-HRP Surface Expression in CFBE41o-Cells
This assay quantifies the cell surface expressions of the mutant CFTR channel using an extracellular HRP tag.
A cellular assay was developed to measure surface expression of horseradish peroxidase (HRP) tagged delF508-CFTR in the human bronchial epithelial immortalized CFBE41o-cell line (Phuan, P. W., et al, (2014) Molecular Pharmacology 86:42-51). Specifically, the HRP sequence was inserted into the fourth extracellular loop of delF508-CFTR and stably expressed in CFBE41o-cells. Cells were seeded in 384 well plate at a density of 5000 cells/well and incubated at 37° C. for 12 to 24 hours in medium (Gibco MEM #11095, 10% FBS, 10 mM HEPES, […], 200 μg/mL G418, 3 μg/mL Puromycin). The delF508-CFTR-HRP expression was induced with 500 ng/mL doxycycline (Sigma D-9891, dissolved in H2O and sterile filtered) in medium and the cells were incubated at 37° C. for 48h. Old medium was removed and fresh medium was added containing 500 ng/mL doxycycline and unknown test compound at required test concentration in DMSO, not exceeding 0.5% final DMSO concentration. The highest concentration tested was 10 μM with a 10-point concentration response curve using a 3-fold dilution. After addition of compounds, the cells were incubated for 24h at 37° C. On the final day, cells were washed four times in PBS containing 1 mM MgCl2 and 0.1 mM CaCl2. HRP-Substrate (SuperSignal ELISA Pico, Fisher #37069) 20 μl/well was added and the luminescence signal was determined (Viewlux, Perkin Elmer). Light was emitted upon addition of exogenous HRP-Substrate only when delF508-CFTR-HRP reached the cell surface and the HRP tag was accessible to the HRP-Substrate (note: HRP-Substrate cannot cross the lipid bilayer to reach delF508-CFTR-HRP misfolded within the cell).
The median activity for the lowest concentration of the compounds on each assay plate was calculated and this value was used to normalize the signal for each well on the respective plate. Three replicates at each concentrations for every compound were run to determine one EC50. The median value was determined and used to calculate compound activities as described below. Effective half maximal values (EC50) were calculated for each compound by performing logistic regression on measured dose-response data points using the equation:
[formula] where “Y” is the observed activity, “Bottom” is the lowest observed value, “Top” is the highest observed value, and the “Hill coefficient” gives the largest absolute value of the slope. The curve fitting is carried out by a curve fitting program implemented at GNF using Matlab (Mathworks).
The dose response curves also were used to calculate Fold Change (FC) using the equation: […]
Compound efficacy relative to the reference compound 3-(6-(1-(2,2-difluorobenzo[d][1,3]dioxol-5-yl)cyclopropane-1-carboxamido)-3-methylpyridin-2-yl)benzoic acid was determined using the following formula: […]

T1 sequence (P13569 with tags, fused parts or gaps DEL508-508): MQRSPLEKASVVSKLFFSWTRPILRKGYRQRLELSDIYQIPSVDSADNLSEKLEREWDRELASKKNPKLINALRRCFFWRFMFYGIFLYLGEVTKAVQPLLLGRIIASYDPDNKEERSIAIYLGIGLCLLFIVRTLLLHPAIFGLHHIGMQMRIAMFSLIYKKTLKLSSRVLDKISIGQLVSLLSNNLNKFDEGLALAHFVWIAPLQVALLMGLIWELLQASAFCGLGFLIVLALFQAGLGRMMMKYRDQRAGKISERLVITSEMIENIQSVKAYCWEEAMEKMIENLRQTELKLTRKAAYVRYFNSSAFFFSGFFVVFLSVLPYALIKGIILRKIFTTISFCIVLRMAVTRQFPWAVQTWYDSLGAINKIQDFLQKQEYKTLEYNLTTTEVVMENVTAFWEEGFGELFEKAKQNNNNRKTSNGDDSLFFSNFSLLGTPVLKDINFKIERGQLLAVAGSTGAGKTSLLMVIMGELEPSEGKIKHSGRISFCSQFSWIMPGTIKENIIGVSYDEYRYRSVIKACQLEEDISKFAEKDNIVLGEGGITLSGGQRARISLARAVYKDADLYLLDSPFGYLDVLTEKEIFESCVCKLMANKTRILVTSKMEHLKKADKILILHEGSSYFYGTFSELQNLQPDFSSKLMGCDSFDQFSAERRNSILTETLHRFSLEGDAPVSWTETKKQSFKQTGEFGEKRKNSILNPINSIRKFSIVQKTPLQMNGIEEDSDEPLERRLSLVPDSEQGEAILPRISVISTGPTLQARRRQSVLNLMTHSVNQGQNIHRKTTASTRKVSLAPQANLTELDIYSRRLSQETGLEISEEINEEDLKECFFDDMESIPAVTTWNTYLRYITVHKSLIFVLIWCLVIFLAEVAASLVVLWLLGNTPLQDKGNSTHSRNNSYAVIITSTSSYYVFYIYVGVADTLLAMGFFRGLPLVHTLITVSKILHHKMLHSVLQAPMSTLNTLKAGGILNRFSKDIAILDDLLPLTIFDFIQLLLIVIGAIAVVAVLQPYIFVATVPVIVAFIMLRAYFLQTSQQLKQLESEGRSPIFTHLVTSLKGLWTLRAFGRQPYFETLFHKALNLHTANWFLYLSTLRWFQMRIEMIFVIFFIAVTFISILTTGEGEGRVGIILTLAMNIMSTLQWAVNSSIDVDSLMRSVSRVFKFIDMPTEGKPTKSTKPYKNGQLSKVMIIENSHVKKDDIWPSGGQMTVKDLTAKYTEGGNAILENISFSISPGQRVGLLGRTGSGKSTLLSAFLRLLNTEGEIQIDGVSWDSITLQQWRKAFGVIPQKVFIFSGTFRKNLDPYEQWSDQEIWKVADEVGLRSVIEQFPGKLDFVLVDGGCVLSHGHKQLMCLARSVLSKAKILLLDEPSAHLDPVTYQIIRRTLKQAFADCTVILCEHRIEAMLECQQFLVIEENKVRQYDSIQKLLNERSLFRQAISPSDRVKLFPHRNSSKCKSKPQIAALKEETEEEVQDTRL

SMILES | Emax [%] | EC50 [µM]
Nc1cccc(S(=O)(=O)Nc2ccc(Cl)c(-c3ccccc3C(F)F)n2)n1 [Example 65, 6-amino-N-(5-chloro-6-(2-(difluoromethyl)phenyl)pyridin-2-yl)pyridine-2-sulfonamide] | 220 | 1.54
Cc1ccccc1-c1nc(NS(=O)(=O)c2cccc(N)n2)ccc1C1CC1 [Example 66, 6-amino-N-(5-cyclopropyl-6-(o-tolyl)pyridin-2-yl)pyridine-2-sulfonamide] | 215 | 3.07
Cc1cccc(C)c1-c1cccc(NS(=O)(=O)c2cccc(N)n2)n1 [Example 68, 6-amino-N-(6-(2,6-dimethylphenyl)pyridin-2-yl)pyridine-2-sulfonamide] | 209 | 2.42
Nc1cccc(S(=O)(=O)Nc2ccc(Cl)c(-c3ccccc3F)n2)n1 [Example 69, 6-amino-N-(5-chloro-6-(2-fluorophenyl)pyridin-2-yl)pyridine-2-sulfonamide] | 199 | 3.3
Cc1ccccc1-c1nc(NS(=O)(=O)c2cccc(N)n2)ccc1F [Example 70, 6-amino-N-(5-fluoro-6-(o-tolyl)pyridin-2-yl)pyridine-2-sulfonamide] | 197 | 2.64
Cc1cc(F)ccc1-c1nc(NS(=O)(=O)c2ccc(N)nc2)ccc1Cl [Example 71, 6-amino-N-(5-chloro-6-(4-fluoro-2-methylphenyl)pyridin-2-yl)pyridine-3-sulfonamide] | 196 | 3.55
COc1ccc(NS(=O)(=O)c2cccc(N)n2)nc1-c1c(C)cccc1C [Example 72, 6-amino-N-(6-(2,6-dimethylphenyl)-5-methoxypyridin-2-yl)pyridine-2-sulfonamide hydrochloride] | 193 | 3.41
Cc1ccccc1-c1nc(NS(=O)(=O)c2cccc(N)n2)ccc1C [Example 75, 6-amino-N-(5-methyl-6-(o-tolyl)pyridin-2-yl)pyridine-2-sulfonamide] | 158 | 2.84
COc1ccccc1-c1nc(NS(=O)(=O)c2cccc(N)n2)ccc1Cl [Example 76, 6-amino-N-(5-chloro-6-(2-methoxyphenyl)pyridin-2-yl)pyridine-2-sulfonamide] | 156 | 2.3
Cc1ccc(NS(=O)(=O)c2cccc(N)n2)nc1-c1ccccc1Cl [Example 77, 6-amino-N-(6-(2-chlorophenyl)-5-methylpyridin-2-yl)pyridine-2-sulfonamide Hydrochloride] | 152 | 2.55
Nc1cccc(S(=O)(=O)Nc2ccc(Cl)c(-c3c(F)ccc(F)c3F)n2)n1 [Example 78, 6-amino-N-(5-chloro-6-(2,3,6-trifluorophenyl)pyridin-2-yl)pyridine-2-sulfonamide] | 141 | 2.73
Nc1cccc(S(=O)(=O)Nc2ccc(C(F)(F)F)c(-c3cccc(C(F)(F)F)c3)n2)n1 [Example 79, 6-amino-N-(5-(trifluoromethyl)-6-(3-(trifluoromethyl)phenyl)pyridin-2-yl)pyridine-2-sulfonamide] | 141 | 2.3
Cc1cccc(C)c1-c1nc(NS(=O)(=O)c2ccc(Br)c(N)n2)ccc1Cl [Example 81, 6-amino-5-bromo-N-(5-chloro-6-(2,6-dimethylphenyl)pyridin-2-yl)pyridine-2-sulfonamide] | 127 | 1.98
Cc1ccc(OC(F)(F)F)cc1-c1nc(NS(=O)(=O)c2cccc(N)n2)ccc1C(F)(F)F [Example 82, 6-amino-N-(6-(2-methyl-5-(trifluoromethoxy)phenyl)-5-(trifluoromethyl)pyridin-2-yl)pyridine-2-sulfonamide] | 124 | 0.942
Cc1ccc(C#N)cc1-c1nc(NS(=O)(=O)c2cccc(N)n2)ccc1C(F)(F)F [Example 83, 6-amino-N-(6-(5-cyano-2-methylphenyl)-5-(trifluoromethyl)pyridin-2-yl)pyridine-2-sulfonamide] | 115 | 4.11
Cc1ccc(C#N)cc1-c1nc(NS(=O)(=O)c2cccc(N)n2)ccc1Cl [Example 84, 6-amino-N-(5-chloro-6-(5-cyano-2-methylphenyl)pyridin-2-yl)pyridine-2-sulfonamide] | 111 | 1.54
Cc1ccc(C#N)cc1-c1nc(NS(=O)(=O)c2ccnc(N)c2)ccc1Cl [Example 85, 2-amino-N-(5-chloro-6-(5-cyano-2-methylphenyl)pyridin-2-yl)pyridine-4-sulfonamide] | 110 | 3.68
Nc1cccc(S(=O)(=O)Nc2ccc(Cl)c(-c3c(F)cc(F)cc3F)n2)n1 [Example 86, 6-amino-N-(5-chloro-6-(2,4,6-trifluorophenyl)pyridin-2-yl)pyridine-2-sulfonamide] | 108 | 3.53
Cc1c(C#N)cccc1-c1nc(NS(=O)(=O)c2ccnc(N)c2)ccc1Cl [Example 87, 2-amino-N-(5-chloro-6-(3-cyano-2-methylphenyl)pyridin-2-yl)pyridine-4-sulfonamide] | 93.8 | 4.1
Cc1ccccc1-c1nc(NS(=O)(=O)c2cccnc2N)ccc1Cl [Example 88, 2-amino-N-(5-chloro-6-(o-tolyl)pyridin-2-yl)pyridine-3-sulfonamide] | 92.9 | 3.78
N#Cc1ccccc1-c1nc(NS(=O)(=O)c2cccc(N)n2)ccc1Cl [Example 90, 6-amino-N-(5-chloro-6-(2-cyanophenyl)pyridin-2-yl)pyridine-2-sulfonamide] | 50 | 3.78
Cc1cc(C#N)ccc1-c1nc(NS(=O)(=O)c2cccc(N)n2)ccc1Cl [Example 91, 6-amino-N-(5-chloro-6-(4-cyano-2-methylphenyl)pyridin-2-yl)pyridine-2-sulfonamide] | 41.7 | 2.2
Cc1cc(C#N)ccc1-c1nc(NS(=O)(=O)c2ccnc(N)c2)ccc1Cl [Example 92, 2-amino-N-(5-chloro-6-(4-cyano-2-methylphenyl)pyridin-2-yl)pyridine-4-sulfonamide] | 23.9 | 1.11
Cc1cccc(C)c1-c1ccc(F)c(NS(=O)(=O)c2cccc(N)n2)n1 [Example 93, 6-amino-N-(6-(2,6-dimethylphenyl)-3-fluoropyridin-2-yl)pyridine-2-sulfonamide] | 23.5 | 3.55
Nc1cccc(S(=O)(=O)Nc2ccc(Cl)c(-c3ccc(C(F)(F)F)cc3)n2)n1 [Example 94, 6-amino-N-(5-chloro-6-(4-(trifluoromethyl)phenyl)pyridin-2-yl)pyridine-2-sulfonamide] | 20.3 | 3.19
Cc1cccc(C)c1-c1nc(NS(=O)(=O)c2cccc(N)n2)c(F)cc1Cl [Example 95, 6-amino-N-(5-chloro-6-(2,6-dimethylphenyl)-3-fluoropyridin-2-yl)pyridine-2-sulfonamide] | 19 | 3.75
Cc1cccc(C)c1-c1ccc(Cl)c(NS(=O)(=O)c2cccc(N)n2)n1 [Example 96, 6-amino-N-(3-chloro-6-(2,6-dimethylphenyl)pyridin-2-yl)pyridine-2-sulfonamide] | 10 | 4.33
